Patent US10150758B2, “PRMT5 inhibitors and uses thereof” (Epizyme, Inc., priority 2012, dated 2018)

What was measured:
PRMT5/MEP50 = PRMT5/MEP50 (Homo sapiens (Human), UniProt O14744); test: PRMT5 Biochemical Assay (PRMT5/MEP50 enzyme assay on peptide substrate, 3H-SAM Flashplate); settings: PRMT5/MEP50 4 nM, 3H-SAM 75 nM, peptide 40 nM
Source text: S-adenosylmethionine (SAM), S-adenosylhomocysteine (SAH), bicine, KCl, Tween20, dimethylsulfoxide (DMSO), bovine skin gelatin (BSG), and Tris(2-carboxyethyl)phosphine hydrochloride solution (TCEP) were purchased from Sigma-Aldrich at the highest level of purity possible. ^3H-SAM was purchase from American Radiolabeled Chemicals with a specific activity of 80 Ci/mmol. 384-well streptavidin Flashplates were purchased from PerkinElmer.
Peptide representative of human histone H4 residues 1-15 was synthesized with a C-terminal linker-affinity tag motif and a C-terminal amide cap by 21st Century Biochemicals. The peptide was high high-perfomance liquid chromatography (HPLC) purified to greater than 95% purity and confirmed by liquid chromatography mass spectrometry (LC-MS). The sequence was Ac-[…][K-Biot]-amide (SEQ ID NO.:3).
Full-length human PRMT5 (NM_006109.3) transcript variant 1 clone was amplified from a fetal brain cDNA library, incorporating flanking 5′ sequence encoding a FLAG tag ([…]) (SEQ ID NO.:4) fused directly to Ala 2 of PRMT5. Full-length human MEP50 (NM_024102) clone was amplified from a human testis cDNA library incorporating a 5′ sequence encoding a 6-histidine tag (MHHHHHH) (SEQ ID NO.:5) fused directly to Arg 2 of MEP50. The amplified genes were sublconed into pENTR/D/TEV (Life Technologies) and subsequently transferred by Gateway™ attL×attR recombination to pDEST8 baculvirus expression vector (Life Technologies).
Recombinant baculovirus and Baculovirus-Infected Insect Cells (BIIC) were generated according to Bac-to-Bac kit instructions (Life Technologies) and Wasilko, 2006, respectively. Protein over-expression was accomplished by infecting exponentially growing Spodoptera frugiperda (SF9) cell culture at 1.2×10^6 cell/ml with a 5000 fold dilution of BIIC stock. Infections were carried out at 27° C. for 72 hours, harvested by centrifugation, and stored at −80° C. for purification.
Flag-PRMT5/6His-MeP50 was eluted with 300 mM Imidazole in the same buffer. The purity of recovered protein was 87%. Reference: Wasilko, D. J. and S. E. Lee: “TIPS: titerless infected-cells preservation and scale-up” Bioprocess J., 5 (2006), pp. 29-32.
General Procedure for PRMT5/MEP50 Enzyme Assays on Peptide Substrates.
The assays were all performed in a buffer consisting of 20 mM Bicine (pH=7.6), 1 mM TCEP, 0.005% BSG, and 0.002% Tween20, prepared on the day of use. Compounds in 100% DMSO (1 ul) were spotted into a polypropylene 384-well V-bottom plates (Greiner) using a Platemate Plus outfitted with a 384-channel head (Thermo Scientific). DMSO (1 ul) was added to Columns 11, 12, 23, 24, rows A-H for the maximum signal control and 1 ul of SAH, a known product and inhibitor of PRMT5/MEP50, was added to columns 11, 12, 23, 24, rows I-P for the minimum signal control. A cocktail (40 ul) containing the PRMT5/MEP50 enzyme and the peptide was added by Multidrop Combi (Thermo-Fisher). The compounds were allowed to incubate with PRMT5/MEP50 for 30 min at 25 degrees Celsius, then a cocktail (10 ul) containing ^3H-SAM was added to initiate the reaction (final volume=51 ul). The final concentrations of the components were as follows: PRMT5/MEP50 was 4 nM, ^3H-SAM was 75 nM, peptide was 40 nM, SAH in the minimum signal control wells was 100 uM, and the DMSO concentration was 1%. The assays were stopped by the addition of non-radioactive SAM (10 ul) to a final concentration of 600 uM, which dilutes the ^3H-SAM to a level where its incorporation into the peptide substrate is no longer detectable. 50 ul of the reaction in the 384-well polypropylene plate was then transferred to a 384-well Flashplate and the biotinylated peptides were allowed to bind to the streptavidin surface for at least 1 hour before being washed three times with 0.1% Tween20 in a Biotek ELx405 plate washer. […]

[1] = tested on: symmetric di-methyl arginine in Z-138 cells; test: Z-138 Methylation Assay (In Cell Western for symmetric di-methyl arginine and DNA content); format: cell-based; settings: Homo sapiens, 96 hours incubation, read-out: ICW EC50
Source text: [formula] [formula] Where top and bottom are the normally allowed to float, but may be fixed at 100 or 0 respectively in a 3-parameter fit. The Hill Coefficient normally allowed to float but may also be fixed at 1 in a 3-parameter fit. Y is the % inhibition and X is the compound concentration. Z-138 Methylation Assay
Z-138 suspension cells were purchased from ATCC (American Type Culture Collection, Manassas, Va.). RPMI/Glutamax medium, penicillin-streptomycin, heat inactivated fetal bovine serum, and D-PBS were purchased from Life Technologies, Grand Island, N.Y., USA. Odyssey blocking buffer, 800CW goat anti-rabbit IgG (H+L) antibody, and Licor Odyssey infrared scanner were purchased from Licor Biosciences, Lincoln, Nebr., USA. Symmetric di-methyl arginine antibody was purchased from EMD Millipore, Billerica, Mass., USA. 16% Paraformaldehyde was purchased from Electron Microscopy Sciences, Hatfield, Pa., USA.
Z-138 suspension cells were maintained in growth medium (RPMI 1640 supplemented with 10% v/v heat inactivated fetal bovine serum and 100 units/mL penicillin-streptomycin) and cultured at 37° C. under 5% CO2.
Cell Treatment, in Cell Western (ICW) for Detection of Symmetric Di-Methyl Arginine and DNA Content.
Z-138 cells were seeded in assay medium at a concentration of 50,000 cells per mL to a 384-well cell culture plate with 50 μL per well. Compound (100 nL) from 384 well source plates was added directly to 384 well cell plate. Plates were incubated at 37° C., 5% CO2 for 96 hours. After four days of incubation, 40 μL of cells from incubated plates were added to poly-D-lysine coated 384 well culture plates (BD Biosciences 356697). Plates were incubated at room temperature for 30 minutes then incubated at 37° C., 5% CO2 for 5 hours. After the incubation, 40 μL per well of 8% paraformaldehyde in PBS (16% paraformaldahyde was diluted to 8% in PBS) was added to each plate and incubated for 30 minutes. Plates were transferred to a Biotek 405 plate washer and washed 5 times with 100 μL per well of wash buffer (1×PBS with 0.1% Triton X-100 (v/v)). Next 30 μL per well of Odyssey blocking buffer were added to each plate and incubated 1 hour at room temperature. Blocking buffer was removed and 20 μL per well of primary antibody was added (symmetric di-methyl arginine diluted 1:100 in Odyssey buffer with 0.1% Tween 20 (v/v)) and plates were incubated overnight (16 hours) at 4° C. Plates were washed 5 times with 100 μL per well of wash buffer. Next 20 μL per well of secondary antibody was added (1:200 800CW goat anti-rabbit IgG (H+L) antibody, 1:1000 DRAQ5 (Biostatus limited) in Odyssey buffer with 0.1% Tween 20 (v/v)) and incubated for 1 hour at room temperature. The plates were washed 5 times with 100 μL per well wash buffer then 1 time with 100 μL per well of water. Plates were allowed to dry at room temperature then imaged on the Licor Odyssey machine which measures integrated intensity at 700 nm and 800 nm wavelengths. Both 700 and 800 channels were scanned.
First, the ratio for each well was determined by:
Each plate included fourteen control wells of DMSO only treatment (minimum inhibition) as well as fourteen control wells for maximum inhibition treated with 3 μM of a reference compound (Background wells). The average of the ratio values for each control type was calculated and used to determine the percent inhibition for each test well in the plate. Reference compound was serially diluted three-fold in DMSO for a total of nine test concentrations, beginning at 3 μM. Percent inhibition was determined and IC50 curves were generated using triplicate wells per concentration of compound.

Z-138 cells = test: Z-138 Proliferation Assay (Cell Titer Glo); format: cell-based; settings: Homo sapiens, 120 h, 5 days, top concentration 20 μM
Source text: [formula] Z-138 Proliferation Assay
Z-138 suspension cells were purchased from ATCC (American Type Culture Collection, Manassas, Va.). RPMI/Glutamax medium, penicillin-streptomycin, heat inactivated fetal bovine serum were purchased from Life Technologies, Grand Island, N.Y., USA. V-bottom polypropylene 384-well plates were purchased from Greiner Bio-One, Monroe, N.C., USA. Cell culture 384-well white opaque plates were purchased from Perkin Elmer, Waltham, Mass., USA. Cell-Titer Glo® was purchased from Promega Corporation, Madison, Wis., USA. SpectraMax M5 plate reader was purchased from Molecular Devices LLC, Sunnyvale, Calif., USA.
Z-138 suspension cells were maintained in growth medium (RPMI 1640 supplemented with 10% v/v heat inactivated fetal bovine serum and cultured at 37° C. under 5% CO2. Under assay conditions, cells were incubated in assay medium (RPMI 1640 supplemented with 10% v/v heat inactivated fetal bovine serum and 100 units/mL penicillin-streptomycin) at 37° C. under 5% CO2.
For the assessment of the effect of compounds on the proliferation of the Z-138 cell line, exponentially growing cells were plated in 384-well white opaque plates at a density of 10,000 cells/ml in a final volume of 50 μl of assay medium. A compound source plate was prepared by performing triplicate nine-point 3-fold serial dilutions in DMSO, beginning at 10 mM (final top concentration of compound in the assay was 20 μM and the DMSO was 0.2%). A 100 nL aliquot from the compound stock plate was added to its respective well in the cell plate. […] After addition of compounds, assay plates were incubated for 5 days at 37° C., 5% CO2, relative humidity >90%. Cell viability was measured by quantitation of ATP present in the cell cultures, adding 35 μl of Cell Titer Glo® reagent to the cell plates. Luminescence was read in the SpectraMax M5 microplate reader. The concentration of compound inhibiting cell viability by 50% was determined using a 4-parametric fit of the normalized dose response curves.

Sequence of PRMT5/MEP50 (O14744 other isoform, or with tags, fused parts or gaps): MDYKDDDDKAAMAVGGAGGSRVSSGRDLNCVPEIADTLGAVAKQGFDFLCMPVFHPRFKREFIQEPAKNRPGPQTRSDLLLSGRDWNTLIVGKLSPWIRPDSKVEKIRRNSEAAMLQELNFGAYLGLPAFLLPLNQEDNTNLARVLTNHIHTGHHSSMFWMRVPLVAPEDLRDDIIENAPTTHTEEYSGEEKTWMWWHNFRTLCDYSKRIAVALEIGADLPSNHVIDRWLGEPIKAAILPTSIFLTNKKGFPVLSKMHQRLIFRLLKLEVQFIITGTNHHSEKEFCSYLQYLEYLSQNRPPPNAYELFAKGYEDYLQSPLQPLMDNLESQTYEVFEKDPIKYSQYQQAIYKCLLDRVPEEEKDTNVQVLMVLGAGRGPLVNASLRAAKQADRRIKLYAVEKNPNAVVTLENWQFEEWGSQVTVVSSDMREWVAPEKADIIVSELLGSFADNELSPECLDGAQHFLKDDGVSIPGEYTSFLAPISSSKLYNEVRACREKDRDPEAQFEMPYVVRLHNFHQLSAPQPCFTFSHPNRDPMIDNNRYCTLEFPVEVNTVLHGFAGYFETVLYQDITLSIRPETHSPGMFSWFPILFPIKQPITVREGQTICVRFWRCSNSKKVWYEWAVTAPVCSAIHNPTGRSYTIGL
Sequence of PRMT5/MEP50 (Q9BQA1 other isoform, or with tags, fused parts or gaps partner): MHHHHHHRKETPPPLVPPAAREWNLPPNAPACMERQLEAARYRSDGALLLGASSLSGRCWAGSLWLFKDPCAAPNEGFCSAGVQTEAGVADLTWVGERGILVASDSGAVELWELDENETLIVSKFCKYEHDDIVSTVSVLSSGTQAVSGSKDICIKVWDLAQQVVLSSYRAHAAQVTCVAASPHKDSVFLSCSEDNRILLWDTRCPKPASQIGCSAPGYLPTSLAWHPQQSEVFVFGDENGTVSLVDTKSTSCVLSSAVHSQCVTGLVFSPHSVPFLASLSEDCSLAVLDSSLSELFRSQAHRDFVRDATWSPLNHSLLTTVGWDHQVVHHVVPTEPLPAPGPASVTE

SMILES | IC50 (PRMT5/MEP50) [µM] | EC50 [1] [µM] | EC50 (Z-138 cells) [µM]
O=c1cccc(CC(O)CN2CCc3ccccc3C2)[nH]1 (stereo not shown) [Compound 2] | 10 to 50 | – | –
O=C1CN(c2cccc(Cl)c2)CCN1CC(O)CN1CCc2ccccc2C1 (stereo not shown) [Compound 5, 4-(3-chlorophenyl)-1-(3-(3,4-dihydroisoquinolin-2(1H)-yl)-2-hydroxypropyl)piperazin-2-one] | < 0.1 | 1 to 10 | –
O=C1CN(c2ccccc2F)CCN1CC(O)CN1CCc2ccccc2C1 (stereo not shown) [Compound 11, 1-(3-(3,4-dihydroisoquinolin-2(1H)-yl)-2-hydroxypropyl)-4-(2-fluorophenyl)piperazin-2-one] | – | > 50 | –
O=c1cc(-c2ccccc2)ccn1C[C@H](O)CN1CCc2ccccc2C1 [Compound 13] | – | > 50 | –
O=c1cc(-c2ccccc2)ccn1C[C@@H](O)CN1CCc2ccccc2C1 [Compound 14] | – | > 50 | –
CC(=O)N1CCN(CC(O)CN2CCc3ccccc3C2)C(=O)C1 (stereo not shown) [Compound 21] | 1 to 10 | – | –
O=C1CN(C2CCOCC2)CCN1CC(O)CN1CCc2ccccc2C1 (stereo not shown) [Compound 23] | 1 to 10 | – | –
O=C1CN(Cc2ccccc2)CCN1CC(O)CN1CCc2ccccc2C1 (stereo not shown) [Compound 24] | 1 to 10 | – | –
O=C(NC1CCOCC1)c1ccn(CC(O)CN2CCc3ccccc3C2)c(=O)c1 (stereo not shown) [Compound 33] | – | 1 to 10 | > 20

Further lines, with some results ahead:

IC50 (PRMT5/MEP50) [µM] | EC50 [1] [µM] | SMILES | EC50 (Z-138 cells) [µM]
10 to 50 | – | Cc1cccc(N2CCN(CC(O)CN3CCc4ccccc4C3)C(=O)C2)c1 (stereo not shown) [Compound 3, 1-(3-(3,4-dihydroisoquinolin-2(1H)-yl)-2-hydroxypropyl)-4-(m-tolyl)piperazin-2-one] | –
– | > 50 | Cc1ccccc1N1CCN(CC(O)CN2CCc3ccccc3C2)C(=O)C1 (stereo not shown) [Compound 10] | –
1 to 10 | – | O=C1CC(c2ccccc2)CCN1C[C@H](O)CN1CCc2ccccc2C1 (stereo partly shown) [Compound 16] | –
1 to 10 | – | O=C1CC(c2ccccc2)CCN1C[C@@H](O)CN1CCc2ccccc2C1 (stereo partly shown) [Compound 17] | –
1 to 10 | – | O=c1cc(Nc2ccccc2)ccn1C[C@H](O)CN1CCc2ccccc2C1 [Compound 18] | –
0.101 to 1 | 1 to 10 | O=C1CN(c2ccc(CO)cc2)CCN1CC(O)CN1CCc2ccccc2C1 (stereo not shown) [Compound 20] | –
1 to 10 | – | CS(=O)(=O)N1CCN(CC(O)CN2CCc3ccccc3C2)C(=O)C1 (stereo not shown) [Compound 22] | –
1 to 10 | – | O=C1CN(Cc2ccccn2)CCN1CC(O)CN1CCc2ccccc2C1 (stereo not shown) [Compound 25] | –
1 to 10 | – | O=C1CN(Cc2cccnc2)CCN1CC(O)CN1CCc2ccccc2C1 (stereo not shown) [Compound 26] | –
> 50 | – | CN1CCN(CC(O)CN2CCc3ccccc3C2)C(=O)C1 (stereo not shown) [Compound 27] | –
1 to 10 | – | O=C1COCCN1CC(O)CN1CCc2ccccc2C1 (stereo not shown) [Compound 28] | –
1 to 10 | – | CN(C)c1ccc(N2CCN(C[C@H](O)CN3CCc4ccccc4C3)C(=O)C2)cc1 [Compound 30] | –
> 10 | – | O=C(NC1CCOCC1)C1CC(=O)N(CC(O)CN2CCc3ccccc3C2)C1 (stereo not shown) [Compound 32] | –
